Measurements published in patent US8618046B2, “Treatment of atherosclerosis with cholesterol ester transport protein mimotopes” (Affiris AG, priority 2007, dated 2013).
Where no end group is shown, it is not given here.

What was measured:
[1] = tested on: monoclonal antibody “Frida”; assay: In vitro inhibition (competition) ELISA with mAb Frida on coated original CETP epitope; type: binding, mouse; conditions: for inhibition ELISA signal, high / inhibition ELISA signal, low / inhibition ELISA signal, 2 μg peptide / inhibition ELISA signal, 20 μg peptide: 2.5 ng mAb Frida; for inhibition ELISA signal, high / inhibition ELISA signal, low / inhibition ELISA signal, first value column / inhibition ELISA signal, second value column / inhibition ELISA signal, 2 μg peptide / inhibition ELISA signal, 20 μg peptide: detection αIgG1; for inhibition ELISA signal, high: high peptide amount; for inhibition ELISA signal, low: low peptide amount; for inhibition ELISA signal, first value column / inhibition ELISA signal, second value column: FIG. 18b, column without head; for inhibition in in vitro competition ELISA, mAb “Frida” (in words): monoclonal antibodies “Frida” and, where stated, “James”; for inhibition ELISA signal, 2 μg peptide / inhibition ELISA signal, 20 μg peptide: coat 1 μM peptide
Method: Different amounts of peptides (2 and 20 μg, as indicated in the respective figures) derived from Phage Display were incubated with the monoclonal antibody that was used for the screening procedure. Peptides diminishing subsequent binding of the antibody to the original CETP epitope (C-terminal 16 amino acids of CETP protein) coated on ELISA plates were considered as inhibiting. (Results see i.a. FIGS. 19a to 19c)

original epitope (p4073) = assay: Titer to the original CETP epitope in sera of immunised animals (peptide ELISA); type: in vivo, mouse
Method: (§1) Balb/c mice/30 μg Peptide, 2 injections in 2 week intervals. S3=2 weeks after 3rd injection. Alum as adjuvant. Titers against original epitope (p4073) induced by injection of mimotopes. Well coating: 50 μl of 1 μM p4073-BSA or 1 μg/ml activated KLH. Detection: αIgG:
Inhibiting as well as some non-inhibiting peptides were coupled to KLH and injected into mice (wildtype or CETP-transgenic mice; subcutaneously into the flank or intra-dermaly into the ears) or rabbits (subcutaneously into the flank) together with an appropriate adjuvant (aluminium hydroxide and Gerbu 100 for mice and aluminium hydroxide or CFA/IFA for rabbits).
Titers to injected peptides as well as to the original CETP epitope were determined. In addition, for selected sera also immune response to CETP protein was measured (Results see FIGS. 7a to 7d and FIGS. 19a to 19e).
(§2) Subcutaneous injections in the flank were performed in week 1, week 3 and week 7 with 30 μg peptide-KLH per mouse. Intradermal injections in the ear were performed in week 1, week 3 and week 6 with 10 μg peptide-KLH per mouse. Sera were taken 2 weeks after the 3rd injection. Vaccine formulation with Alum (always 1 mg per mouse): up to 250 μl, injected into one flank. The Alum formulation with 1 ml per mouse (500 μl into each flank) was in 1×PBS as buffer.
Vaccine formulation with Gerbu Adjuvant 100 (Gerbu Cat. Nr. #3100; always 50 μl adjuvant per mouse): 200 μl, 100 μl injected into each flank comprising 1×HEPES as buffer. […]

irrelevant peptide-BSA = assay: Titer to irrelevant peptide in sera of immunised animals (peptide ELISA); type: in vivo, mouse; conditions: Table 1, mice, sera 2 weeks after 3rd injection
Method: as §1, §2
Vaccine formulation with Gerbu Adjuvant 100 (Gerbu Cat. Nr. #3100; always 50 μl adjuvant per mouse): 200 μl, 100 μl injected into each flank comprising 1×HEPES as buffer.
Female Balb/c mice, five mice per group, were subcutaneously immunized with 30 μg peptide coupled to KLH. Control groups were administered KLH or C-[…] (SEQ ID NO. 147). As adjuvant alum was used. […] The in vitro ELISA assay to determine the antibody titer was performed with pooled sera after two vaccinations in a two week interval (S2; see FIGS. 7a to 7d). The wells of the ELISA plate were coated with KLH (positive control), mimotope-BSA conjugate, C-[…] (SEQ ID NO. 147) and a irrelevant peptide-BSA conjugate (negative control). The detection was performed with anti-mouse IgG.

[2] = FIG. 18a, coat 1 μM 4073 peptide

In the case of “C-GFKPAHVFIDWLQSLS (N-terminal cysteine; CETP mimotope) [p4479]”, the “inhibition ELISA signal, high” value [1, 2] is reported as 1.591 and the “inhibition ELISA signal, low” value [1, 2] is reported as 2.165.

For “C-FGFPQHLFTDWLQSLS (N-terminal cysteine; CETP mimotope) [p4481]”, the “inhibition ELISA signal, high” value [1, 2] was 0.156 and the “inhibition ELISA signal, low” value [1, 2] was 0.551.

With “C-FGFPAHVFIDWLQ (N-terminal cysteine; CETP mimotope) [p4631]” the “inhibition ELISA signal, first value column” value ([1]; coat 1 μM 4073 peptide) was 2.111 and the “inhibition ELISA signal, second value column” value ([1]; coat 1 μM 4073 peptide) was 2.147.

For “C-RMFPESFLDTLW (N-terminal Cys; CETP mimotope) [P12-21]”, the “antibody response to the original CETP epitope (in words)” value (original epitope (p4073); coupled to KLH, mice and rabbits) was “induced an immune response to the original CETP epitope in wt mice and in rabbits”.

With “C-PEHLLVDFLQSLS (N-terminal Cys) [reference compound]” the “inhibition in in vitro competition ELISA, mAb “Frida” (in words)” value (“inhibition in in vitro competition ELISA” below) [1] was “evtl. slightly inhibiting in vitro”.

With “C-FGFPEHLLVDFLQSLS [p4073, reference compound]” the “inhibition ELISA signal, 2 μg peptide” value ([1]; FIG. 10a) was 0.44, the “inhibition ELISA signal, 20 μg peptide” value ([1]; FIG. 10a) was 0.1 and the “inhibition ELISA signal, 2 μg peptide” value ([1]; FIG. 10b) was 0.64. The “inhibition ELISA signal, 20 μg peptide” value ([1]; FIG. 10b) was 0.15, the “inhibition ELISA signal, high” value [1, 2] was 0.094 and the “inhibition ELISA signal, low” value [1, 2] was 0.537. For the same substance, the “inhibition ELISA signal, high” value ([1]; FIG. 18c, coat 1 μM 4073) was 0.088, the “inhibition ELISA signal, low” value ([1]; FIG. 18c, coat 1 μM 4073) was 0.554 and the “inhibition in in vitro competition ELISA” value [1] was “inhibiting in vitro”.

For “C-FGFPAHVSFDWLQSLS (N-terminal cysteine; CETP mimotope) [p4476]”, the “inhibition ELISA signal, high” value [1, 2] was 1.417 and the “inhibition ELISA signal, low” value [1, 2] was 2.000.

In the case of “C-FGFPSHLIIDWLQSLS (N-terminal Cys; CETP mimotope) [p4325]”, the “inhibition ELISA signal, 2 μg peptide” value ([1]; FIG. 10b) is reported as 0.42 and the “inhibition ELISA signal, 20 μg peptide” value ([1]; FIG. 10b) is reported as 0.1.

With C-FGFPEHLLVDFLQS [reference compound] the “inhibition in in vitro competition ELISA” value [1] was “not inhibiting in vitro”.

In the case of “C-AAAPAHLLVDAAQAAA (N-terminal Cys; CETP mimotope) [p4437]”, the “inhibition ELISA signal, high” value ([1]; FIG. 18c, coat 1 μM 4073) is reported as 1.674 and the “inhibition ELISA signal, low” value ([1]; FIG. 18c, coat 1 μM 4073) is reported as 1.84.

In the case of “p4227-KLH: P12-19; C-SANPRDFLETLF coupled to KLH (CSANPRDFLETLF; also: coupled to KLH)”, the “titer, P4073 (FGFPEHLLVDFLQSLS)” value (original epitope (p4073); Table 1, KLH/Alum i.d. (10 μg peptide), mice, sera 2 weeks after 3rd injection) is reported as “no titer”, the “titer, p irrelevant” value (irrelevant peptide-BSA; Alum s.c. (30 μg peptide)) is reported as “no titer” and the “titer, p irrelevant” value (irrelevant peptide-BSA; KLH/Alum i.d. (10 μg peptide)) is reported as “no titer”.

With “p4184-KLH: F3-18 C-DFLRTLT coupled to KLH (CDFLRTLT; also: coupled to KLH)” the “titer, p irrelevant” value (irrelevant peptide-BSA; KLH/Alum i.d. (10 μg peptide)) was “no titer”.

In the case of “C-DFGFPAHVLIDWLQSLN (N-terminal cysteine; CETP mimotope) [p4990]”, the “inhibition ELISA signal, first value column” value ([1]; coat 1 μM 4073 peptide) is reported as 0.263 and the “inhibition ELISA signal, second value column” value ([1]; coat 1 μM 4073 peptide) is reported as 0.073.

In the case of C-FGFPAHVYIDWLQSLS [p4362], the “inhibition ELISA signal, 2 μg peptide” value ([1]; FIG. 10a) is reported as 0.75 and the “inhibition ELISA signal, 20 μg peptide” value ([1]; FIG. 10a) is reported as 0.15.
